# Reference: US10174037B2, “Dihydropyrazolopyrimidinone compounds as PDE2 inhibitors” (Merck Sharp & Dohme Corp., priority 2015, dated 2019)
# Columns and labels:
# human PDE2A1 = human PDE2A1 (Homo sapiens (Human), UniProt O00408); experiment: PDE selectivity IMAP FP assay, human PDE2A1; assay type: biochemical; conditions: Human PDE2; Lab B; read-out: Human PDE2 Ki (nM) Lab B
# How it was run: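 Compound titrations run against PDE2 in Tris HCl pH 7.2 buffer with MgCl2 and DTT for 60 min at room temperature, using 50 nM FAM-cAMP plus 1000 nM cGMP and enzyme giving 20% conversion.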
# Rhesus PDE2A3 = Rhesus PDE2A3 (Macaca mulatta, UniProt B3VTJ2); experiment: PDE2 fluorescence polarization (IMAP FP) assay, rhesus PDE2A3; assay type: biochemical, rhesus macaque; conditions: Lab B, read-out: Rhesus PDE2 Ki (nM) Lab B
# Chain of Rhesus PDE2A3 (B3VTJ2 1-941): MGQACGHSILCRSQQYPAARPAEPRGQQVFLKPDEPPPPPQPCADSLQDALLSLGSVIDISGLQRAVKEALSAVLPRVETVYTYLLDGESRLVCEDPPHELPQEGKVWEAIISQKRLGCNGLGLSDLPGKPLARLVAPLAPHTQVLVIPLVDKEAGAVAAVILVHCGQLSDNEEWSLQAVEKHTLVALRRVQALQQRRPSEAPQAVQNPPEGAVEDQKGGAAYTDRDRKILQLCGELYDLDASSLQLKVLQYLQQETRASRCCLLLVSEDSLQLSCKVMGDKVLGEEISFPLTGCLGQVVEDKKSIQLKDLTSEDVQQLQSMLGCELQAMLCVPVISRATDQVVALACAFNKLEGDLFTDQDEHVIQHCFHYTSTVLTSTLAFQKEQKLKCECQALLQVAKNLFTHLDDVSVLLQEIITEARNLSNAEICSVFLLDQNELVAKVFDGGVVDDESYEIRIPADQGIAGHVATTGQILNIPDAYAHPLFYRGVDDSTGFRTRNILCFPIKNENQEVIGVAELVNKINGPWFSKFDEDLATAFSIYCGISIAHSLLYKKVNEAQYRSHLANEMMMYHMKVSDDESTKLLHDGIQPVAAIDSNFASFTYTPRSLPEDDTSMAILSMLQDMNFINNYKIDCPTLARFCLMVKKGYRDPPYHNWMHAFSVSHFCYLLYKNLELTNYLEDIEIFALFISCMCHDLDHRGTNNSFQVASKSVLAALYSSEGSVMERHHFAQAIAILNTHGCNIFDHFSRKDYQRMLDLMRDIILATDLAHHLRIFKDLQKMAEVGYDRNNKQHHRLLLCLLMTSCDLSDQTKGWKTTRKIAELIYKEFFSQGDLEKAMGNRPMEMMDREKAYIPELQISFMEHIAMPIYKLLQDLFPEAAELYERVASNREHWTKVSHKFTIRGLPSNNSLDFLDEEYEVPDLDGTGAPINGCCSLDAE
# Chain of human PDE2A1 (O00408 other isoform, or with tags, fused parts or gaps): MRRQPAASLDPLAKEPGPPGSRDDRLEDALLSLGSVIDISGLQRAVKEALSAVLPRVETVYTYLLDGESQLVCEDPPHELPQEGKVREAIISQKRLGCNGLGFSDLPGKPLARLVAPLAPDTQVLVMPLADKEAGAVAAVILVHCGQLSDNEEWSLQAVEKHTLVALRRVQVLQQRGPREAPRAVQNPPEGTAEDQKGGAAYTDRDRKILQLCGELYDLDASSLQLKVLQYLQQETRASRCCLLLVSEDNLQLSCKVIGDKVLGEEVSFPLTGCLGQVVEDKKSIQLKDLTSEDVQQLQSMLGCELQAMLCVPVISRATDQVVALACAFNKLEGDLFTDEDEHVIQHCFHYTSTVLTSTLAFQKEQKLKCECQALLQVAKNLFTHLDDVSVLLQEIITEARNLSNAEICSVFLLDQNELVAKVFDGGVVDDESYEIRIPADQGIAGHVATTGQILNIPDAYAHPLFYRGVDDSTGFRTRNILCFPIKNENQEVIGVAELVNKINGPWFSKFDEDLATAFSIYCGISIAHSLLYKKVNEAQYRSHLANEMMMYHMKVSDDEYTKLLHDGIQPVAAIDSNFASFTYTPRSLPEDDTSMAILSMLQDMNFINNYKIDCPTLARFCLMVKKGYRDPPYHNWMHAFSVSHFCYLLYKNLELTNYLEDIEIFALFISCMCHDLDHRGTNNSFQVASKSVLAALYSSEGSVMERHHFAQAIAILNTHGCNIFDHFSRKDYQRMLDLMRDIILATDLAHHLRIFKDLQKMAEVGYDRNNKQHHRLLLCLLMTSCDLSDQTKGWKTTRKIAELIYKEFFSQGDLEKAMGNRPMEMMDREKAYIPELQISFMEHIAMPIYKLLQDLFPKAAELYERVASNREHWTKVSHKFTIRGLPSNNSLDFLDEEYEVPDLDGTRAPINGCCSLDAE
SMILES,Ki (human PDE2A1) [nM],Ki (Rhesus PDE2A3) [nM]
"CC(c1ccc(C(C)(F)F)c(F)c1)n1nc(CO)c2c(=O)[nH]c(N(C)C)nc21 (single isomer, unassigned) [Example 107, (S)- or (R)-1-(1-(4-(1,1-Difluoroethyl)-3-fluorophenyl)ethyl)-6-(dimethylamino)-3-(hydroxymethyl)-1H-pyrazolo[3,4-d]pyrimidin-4(5H)-one]",0.12,0.12
"CC(c1ccc(C(C)(F)F)cc1F)n1nc(CO)c2c(=O)[nH]c(N(C)C)nc21 (single isomer, unassigned) [Example 108, (R)- or (S)-1-(1-(4-(1,1-DiHuoroethyl)-2-fluoroplienyl)ethyl)-6-(dimethylamino)-3-(hydroxymethyl)-1H-pyrazolo[3,4-d]pyrimidin-4(5H)-one]",0.23,0.18
"CCC(c1ccc(C(C)(F)F)cc1F)n1nc(CO)c2c(=O)[nH]c(N(C)C)nc21 (single isomer, unassigned) [Example 111, (S)- or (R)-1-(1-(4-(1,1-Difluoroethyl)-2-fluorophenyl)propyl)-6-(dimethylamino)-3-(hydroxymethyl)-1H-pyrazolo[3,4-d]pyrimidin-4(5H)-one]",0.12,0.14
"CCC(c1ccc(C(C)(F)F)c(F)c1)n1nc(CO)c2c(=O)[nH]c(N(C)C)nc21 (single isomer, unassigned) [Example 112, (R)- or (S)-1-(1-(4-(1,1-Difluoroethyl)-3-fluorophenyl)propyl)-6-(dimethylamino)-3-(hydroxymethyl)-1H-pyrazolo[3,4-d]pyrimidin-4(5H)-one]",0.84,1.1
"CCC(c1ccc(C(C)(F)F)c(F)c1)n1nc(CO)c2c(=O)[nH]c(N(C)C)nc21 (single isomer, unassigned) [Example 113]",0.057,0.055
"CC(C)C(c1ccc(C(F)F)c(F)c1)n1nc(CO)c2c(=O)[nH]c(N(C)C)nc21 (single isomer, unassigned) [Example 114]",0.79,0.71
"CC(C)C(c1ccc(C(C)(F)F)c(F)c1)n1nc(CO)c2c(=O)[nH]c(N(C)C)nc21 (single isomer, unassigned) [Example 116, (R)- or (S)-1-(1-(4-(1,1-Difluoroethyl)-3-fluorophenyl)-2-methylpropyl)-6-(dimethylamino)-3-(hydroxymethyl)-1H-pyrazolo[3,4-d]pyrimidin-4(5H)-one]",0.13,0.16
"CC(C)C(c1ccc(C(C)(F)F)c(F)c1)n1nc(CO)c2c(=O)[nH]c(N(C)C)nc21 (single isomer, unassigned) [Example 117, (R)- or (S)-1-(1-(4-(1,1-Difluoroethyl)-3-fluorophenyl)-2-methylpropyl)-6-(dimethylamino)-3-(hydroxymethyl)-1H-pyrazolo[3,4-d]pyrimidin-4(5H)-one]",0.017,0.025
"CC(C)C(c1ccc(C(C)(F)F)cc1F)n1nc(CO)c2c(=O)[nH]c(N(C)C)nc21 (single isomer, unassigned) [Example 118, (R)- or (S)-1-(1-(4-(1,1-Difluoroethyl)-2-fluorophenyl)-2-methylpropyl)-6-(dimethylamino)-3-(hydroxymethyl)-1H-pyrazolo[3,4-d]pyrimidin-4(5H)-one]",0.42,0.44
"CC(C)C(c1ccc(C(C)(F)F)cc1F)n1nc(CO)c2c(=O)[nH]c(N(C)C)nc21 (single isomer, unassigned) [Example 119, (S)- or (R)-(1-(4-(1,1-Difluoroethyl)-2-fluorophenyl)-2-methylpropyl)-6-(dimethylamino)-3-(hydroxymethyl)-1H-pyrazolo[3,4-d]pyrimidin-4(5H)-one]",0.024,0.036
"CC(C)C(c1ccc(OC(F)F)cc1)n1nc(CO)c2c(=O)[nH]c(N(C)C)nc21 (single isomer, unassigned) [Example 120]",0.21,0.28
"CC(C)C(c1ccc(OC(F)F)cc1)n1nc(CO)c2c(=O)[nH]c(N(C)C)nc21 (single isomer, unassigned) [Example 121]",0.34,0.31
"CN(C)c1nc2c(c(CO)nn2C(c2ccc(OC(F)F)c(F)c2)C2CC2)c(=O)[nH]1 (single isomer, unassigned) [Example 122, (R)- or (S)-1-(Cyclopropyl(4-(difluoromethoxy)-3-fluorophenyl)methyl)-6-(dimethylamino)-3-(hydroxymethyl)-1H-pyrazolo[3,4-d]pyrimidin-4(5H)-one]",0.3,0.37
"CN(C)c1nc2c(c(CO)nn2C(c2ccc(OC(F)F)c(F)c2)C2CC2)c(=O)[nH]1 (single isomer, unassigned) [Example 123, (S)- or (R)-1-(Cyclopropyl(4-(difluoromethoxy)-3-fluorophenyl)methyl)-6-(dimethylamino)-3-(hydroxymethyl)-1H-pyrazolo[3,4-d]pyrimidin-4(5H)-one]",0.6,0.61
"CCC(c1ccc(OC(F)F)cc1)n1nc(CO)c2c(=O)[nH]c(N(C)C)nc21 (single isomer, unassigned) [Example 124, (R)- or (S)-1-(1-(4-(Difluoromethoxy)phenyl)propyl)-6-(dimethylamino)-3-(hydroxymethyl)-1H-pyrazolo[3,4-d]pyrimidin-4(5H)-one]",0.73,0.7
"CCC(c1ccc(OC(F)F)c(F)c1)n1nc(CO)c2c(=O)[nH]c(N(C)C)nc21 (single isomer, unassigned) [Example 126, (R)- or (S)-1-(1-(4-(Difluoromethoxy)-3-fluorophenyl)propyl)-6-(dimethylamino)-3-(hydroxymethyl)-1H-pyrazolo[3,4-d]pyrimidin-4(5H)-one]",0.3,0.45
"CCC(c1ccc(OC(F)F)c(F)c1)n1nc(CO)c2c(=O)[nH]c(N(C)C)nc21 (single isomer, unassigned) [Example 127, (S)- or (R)-1-(1-(4-(Difluoromethoxy)-3-fluorophenyl)propyl)-6-(dimethylamino)-3-(hydroxymethyl)-1H-pyrazolo[3,4-d]pyrimidin-4(5H)-one]",0.81,1.4
"CN(C)c1nc2c(c(CO)nn2C(c2ccc(OC(F)F)cc2)C2CC2)c(=O)[nH]1 (single isomer, unassigned) [Example 128, (R)- or (S)-1-(Cyclopropyl(4-(difluoromethoxy)phenyl)methyl)-6-(dimethylamino)-3-(hydroxymethyl)-1H-pyrazolo[3,4-d]pyrimidin-4(5H)-one]",0.5,0.55
"CN(C)c1nc2c(c(CO)nn2C(c2ccc(OC(F)F)cc2)C2CC2)c(=O)[nH]1 (single isomer, unassigned) [Example 129, (S)- or (R)-(Cyclopropyl(4-(difluoromethoxy)phenyl)methyl)-6-(dimethylamino)-3-(hydroxymethyl)-1H-pyrazolo[3,4-d]pyrimidin-4(5H)-one]",0.55,1
"CCC(c1ccc(C(F)(F)F)cc1F)n1nc(CO)c2c(=O)[nH]c(N(C)C)nc21 (single isomer, unassigned) [Example 130, (R)- or (S)-6-(Dimethylamino)-1-(1-(2-fluoro-4-(trifluoromethyl)phenyl)propyl)-3-(hydroxymethyl)-1H-pyrazolo[3,4-d]pyrimidin-4(5H)-one]",0.071,0.12
"CC(C)C(c1ccc(C(F)(F)F)cc1F)n1nc(CO)c2c(=O)[nH]c(N(C)C)nc21 (single isomer, unassigned) [Example 132, (R)- or (S)-6-(Dimethylamino)-1-(1-(2-fluoro-4-(trifluoromethyl)phenyl)-2-methylpropyl)-3-(hydroxymethyl)-1H-pyrazolo[3,4-d]pyrimidin-4(5H)-one]",0.04,0.059
"CC(C)C(c1ccc(C(F)(F)F)cc1F)n1nc(CO)c2c(=O)[nH]c(N(C)C)nc21 (single isomer, unassigned) [Example 133, (S)- or (R)-6-(Dimethylamino)-1-(1-(2-fluoro-4-(trifluoromethyl)phenyl)-2-methylpropyl)-3-(hydroxymethyl)-1H-pyrazolo[3,4-d]pyrimidin-4(5H)-one]",0.45,0.6
"CN(C)c1nc2c(c(CO)nn2C(c2ccc(C(F)(F)F)cc2F)C2CC2)c(=O)[nH]1 (single isomer, unassigned) [Example 134, (R)- or (S)-1-(Cyclopropyl(2-fluoro-4-(trifluoromethyl)phenyl)methyl)-6-(dimethylamino)-3-(hydroxymethyl)-1H-pyrazolo[3,4-d]pyrimidin-4(5H)-one]",0.047,0.05
"CN(C)c1nc2c(c(CO)nn2C(c2ccc(C(F)(F)F)cc2F)C2CC2)c(=O)[nH]1 (single isomer, unassigned) [Example 135, (S)- or (R)-1-(Cyclopropyl(2-fluoro-4-(trifluoromethyl)phenyl)methyl)-6-(dimethylamino)-3-(hydroxymethyl)-1H-pyrazolo[3,4-d]pyrimidin-4(5H)-one]",0.6,0.72
"CCC(c1ccc(C(C)(F)F)cc1)n1nc(CO)c2c(=O)[nH]c(N(C)C)nc21 (single isomer, unassigned) [Example 137, (S)- or (R)-1-(1-(4-(1,1-Difluoroethyl)phenyl)propyl)-6-(dimethylamino)-3-(hydroxymethyl)-1H-pyrazolo[3,4-d]pyrimidin-4(5H)-one]",0.073,0.14
"CC(C)C(c1ccc(C(C)(F)F)cc1)n1nc(CO)c2c(=O)[nH]c(N(C)C)nc21 (single isomer, unassigned) [Example 138, (R)- or (S)-1-(1-(4-(1,1-Difluoroethyl)phenyl)-2-methylpropyl)-6-(dimethylamino)-3-(hydroxymethyl)-1H-pyrazolo[3,4-d]pyrimidin-4(5H)-one]",0.19,0.41
